Legend:
human ENT1 [1] = target: T1, human ENT1 (Homo sapiens, UniProt Q99808); experiment: Uridine transport inhibition assay, ENT1-mediated uptake in MDCKII cells; assay type: cell-based; settings: MDCKIIENT1-LV cells, probe uridine 1 μM, pre-incubation 30 min, incubation 1 min
T1 construct: JAR cells expressing ENT1 were purchased from ATCC; host or cells: JAR cells
T1 sequence (Q99808 1-456): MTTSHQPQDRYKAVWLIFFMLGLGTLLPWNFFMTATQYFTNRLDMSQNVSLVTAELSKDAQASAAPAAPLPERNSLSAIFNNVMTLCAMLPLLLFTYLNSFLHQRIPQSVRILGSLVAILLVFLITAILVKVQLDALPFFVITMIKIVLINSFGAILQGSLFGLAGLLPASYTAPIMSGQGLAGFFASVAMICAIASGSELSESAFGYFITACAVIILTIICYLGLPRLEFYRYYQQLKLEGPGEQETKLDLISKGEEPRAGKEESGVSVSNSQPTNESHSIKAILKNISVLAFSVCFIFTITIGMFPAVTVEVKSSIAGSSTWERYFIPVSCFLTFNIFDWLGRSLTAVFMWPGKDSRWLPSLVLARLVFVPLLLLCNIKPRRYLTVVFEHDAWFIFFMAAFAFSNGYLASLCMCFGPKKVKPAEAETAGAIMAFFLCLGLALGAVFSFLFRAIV
Experimental: The goal of this study was to determine the potency and selectivity of ENT1 inhibitors by measuring ENT1 and ENT2-mediated transport using an in vitro cellular uptake assay.
Human ENT1 and ENT2 transporters were stably expressed in Madin-Darby Canine Kidney II (MDCKII) cells via transduction. Cell lines overexpressing the relevant ENT1 or ENT2 molecules were preincubated with a dose range of the relevant compound for 30 minutes before introduction of the specific substrate at the concentration indicated in the Table assay parameters below. The transporter assay was conducted for the time specified in the Table assay parameters before the specific uptake of the substrate into the cells was quantified. Specific uptake was determined by comparing the uptake from the cells treated with the relevant compounds and the uptake by cells not overexpressing the transporter in question.
Specific uptake for each concentration of the test sample was normalized to the DMSO control value to generate a relative accumulation value (or relative transporter activity). Data were plotted against the log molar concentration of the test reagent used. IC50 values were generated with Prism version 9.4.1 and the following function: log(inhibitor) vs. response—Variable slope (four parameters).

human ENT1 [2] = target: T1, human ENT1; experiment: ENT1 binding assay (competition with Sahenta-DY647 on JAR cells); settings: competition with SAHENTA-DY647 binding; IC50 categorized; read-out: Binding Assay IC50
Outline: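 Fluorescent-tracer displacement: compound incubated with JAR cells 30 min, 4 °C, before Sahenta-DY647 (100 nM) for another 30 min, 4 °C, in Hepes-buffered HBSS with 0.1% BSA. Bound tracer read at 670 nm after washes; IC50 from four-parameter fit, reported as mean of pIC50 values.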

Structure (SMILES): C[C@H]1O[C@@H](n2c(NC3CCCC3)nc3c(OCc4ccc([N+](=O)[O-])cc4)ncnc32)[C@H](O)[C@@H]1O [Compound 6]
- IC50 (human ENT1 [1]): 0.1 to 2 nM
- IC50 (human ENT1 [2]): < 1 nM

Structure (SMILES): C[C@H]1O[C@@H](n2c(NC3CCC(O)CC3)nc3c(OCc4ccc([N+](=O)[O-])cc4)ncnc32)[C@H](O)[C@@H]1O (some centres unmarked) [Compound 28]
- IC50 (human ENT1 [1]): 0.1 to 2 nM
- IC50 (human ENT1 [2]): < 1 nM

Structure (SMILES): C[C@H]1O[C@@H](n2c(NC3CCOCC3)nc3c(OCc4ccc(C#N)cc4)ncnc32)[C@H](O)[C@@H]1O [Compound 73]
- IC50 (human ENT1 [1]): 0.1 to 2 nM
- IC50 (human ENT1 [2]): < 1 nM

Structure (SMILES): C[C@H]1O[C@@H](n2c(NC3CCOCC3)nc3c(OCc4ccc(OC(F)F)nc4)ncnc32)[C@H](O)[C@@H]1O [Compound 75]
- IC50 (human ENT1 [1]): 0.1 to 2 nM
- IC50 (human ENT1 [2]): < 1 nM

Structure (SMILES): C[C@H]1O[C@@H](n2c(N[C@H]3CCC(F)(F)C3)nc3c(OCc4ccc(C#N)cc4)ncnc32)[C@H](O)[C@@H]1O [Compound 82]
- IC50 (human ENT1 [1]): 0.1 to 2 nM
- IC50 (human ENT1 [2]): 1 to 20 nM

Structure (SMILES): C[C@H]1O[C@@H](n2cnc3c(SCc4ccc([N+](=O)[O-])cc4)ncnc32)[C@H](O)[C@@H]1O [Compound 147]
- IC50 (human ENT1 [1]): < 0.1 nM
- IC50 (human ENT1 [2]): 1 to 20 nM

Structure (SMILES): C[C@H]1O[C@@H](n2cnc3c(N4CCc5ccc([N+](=O)[O-])cc5C4)ncnc32)[C@H](O)[C@@H]1O [Compound 151]
- IC50 (human ENT1 [1]): 0.1 to 2 nM
- IC50 (human ENT1 [2]): 1 to 20 nM

Structure (SMILES): C[C@H]1O[C@@H](n2cnc3c(OCc4ccc([N+](=O)[O-])cc4)ncnc32)[C@H](O)[C@@H]1O [Compound 166]
- IC50 (human ENT1 [1]): 0.1 to 2 nM
- IC50 (human ENT1 [2]): 20 to 500 nM

Structure (SMILES): C[C@H]1O[C@@H](n2cnc3c(OCc4ccc(OC(F)F)cc4)ncnc32)[C@H](O)[C@@H]1O [Compound 173]
- IC50 (human ENT1 [1]): 0.1 to 2 nM
- IC50 (human ENT1 [2]): 20 to 500 nM

Structure (SMILES): OCCOC[C@H]1O[C@@H](n2cnc3c(OCc4ccc(OC(F)(F)F)cc4)ncnc32)[C@H](O)[C@@H]1O [Compound 175]
- IC50 (human ENT1 [1]): 0.1 to 2 nM
- IC50 (human ENT1 [2]): 20 to 500 nM

— patent US20260184712A1, “Heterocyclic Compounds as ENT Inhibitors and Compounds for Use in the Treatment of Cancers” (iTeos Belgium SA, priority 2022, published 2026)
